Assay results as given in PMC8565742 (PLoS Neglected Tropical Diseases, 2021).

Assays:
[1] = tested on: untransfected HEK293 cells; test: Counterscreen, agonist mode, Ca2+ signal in untransfected HEK cells; assay type: cell-based; details: for EC50: Homo sapiens, HEK293, unit inferred, read-out: HEK AG Final EC50; for EC50 / HEK AG Averaged Max % Response: counterscreen titration
Protocol: (§1) HEK cells were transfected with cDNA (400μg/ml DNA) encoding Sm.TRPMPZQ using a Maxcyte STX electroporation system and incubated overnight at 37°C. This system is uniquely capabable of large scale transfections providing one batch of cells ready for large scale HTS [30]. Briefly, the HEK cells were resuspended at 10^8/ml in Maxcyte electroporation buffer. Plasmid DNA was added to the cells in buffer to achieve a concentration of 400 μg/ml from a stock of 5mg/ml (in TE buffer). This mixture was loaded into the appropriate cassette, inserted into the machine, and cells electroporated. Cells were then frozen to provide a single supply of transfected cells for all subsequent assays. On the day of the assays, cells were thawed in a 37°C waterbath, and resuspended in DMEM + 10% FBS and counted. The cells were pelleted by centrifugation at 170xg for 5 minutes. The media was aspirated, and the remaining pellet was resuspended in 1x HBSS with 20 mM HEPES and 1% DMSO to achieve 1.33x10^6cells/ml. This cell suspension was then dispensed at 3 μl/well to the 1536 well plates (Greiner Bio One part 789072) at a density of 4,000 cells/well. Measurements of fluorescence intensity (λex = 470 nm, λem = 535 nm) were made using a FLIPR (Molecular Devices FLIPR Tetra). A read of basal fluorescence values was made (5s) prior to addition of compounds or controls (30 nl). In both ‘agonist’ and ‘antagonist mode’, the total assay volume was 6μl (1% DMSO). […] Ligand performance was categorized using an algorithm based on the activity of the entire dataset to define a ‘hit-cutoff’ parameter for both agonist-mode and antagonist-mode screening. Any compound with greater percent activation than this cutoff was assigned as ‘active’ prior to titration and counter-screening. Titration assays were executed using the same reagents, protocols and detection systems, done as 10-point concentration-response curves, performed in triplicate. Counter-screening was performed using untransfected HEK293 cells for comparison with results testing the same compounds effect on cells expressing Sm.TRPMPZQ, with ATP used as the positive control. For each compound, activity was plotted against compound concentration and data were fitted with a sigmoidal function. In order to be considered a hit at this stage a compound must achieve a EC50<5 μM for agonists and IC50 <5 μM for antagonists. All compounds selected for titration were subjected to LC-MS analysis to confirm mass and sample purity. ChemAxon (https://www.chemaxon.com) academic licensing was provided for the use of Instant JChem (ver. 15.10.12.0) to perform compound mining of the libraries utilized in this effort.

[2] = tested on: untransfected HEK293 cells; test: Counterscreen, antagonist mode, Ca2+ signal in untransfected HEK cells; assay type: cell-based; details: counterscreen titration; for EC50: Homo sapiens, HEK293, unit inferred, read-out: HEK ANT Final EC50
Protocol: as §1

Sm.TRPMPZQ[R1514A] = test: Ca2+ signal in cells expressing the binding pocket mutant; assay type: cell-based, Schistosoma mansoni
Sm.TRPMPZQ = Sm.TRPMPZQ (Schistosoma mansoni, UniProt A0A5K4F0X5); details: confocal Ca2+ imaging; cited from earlier work
Sequence of Sm.TRPMPZQ (A0A5K4F0X5 entry or part of it): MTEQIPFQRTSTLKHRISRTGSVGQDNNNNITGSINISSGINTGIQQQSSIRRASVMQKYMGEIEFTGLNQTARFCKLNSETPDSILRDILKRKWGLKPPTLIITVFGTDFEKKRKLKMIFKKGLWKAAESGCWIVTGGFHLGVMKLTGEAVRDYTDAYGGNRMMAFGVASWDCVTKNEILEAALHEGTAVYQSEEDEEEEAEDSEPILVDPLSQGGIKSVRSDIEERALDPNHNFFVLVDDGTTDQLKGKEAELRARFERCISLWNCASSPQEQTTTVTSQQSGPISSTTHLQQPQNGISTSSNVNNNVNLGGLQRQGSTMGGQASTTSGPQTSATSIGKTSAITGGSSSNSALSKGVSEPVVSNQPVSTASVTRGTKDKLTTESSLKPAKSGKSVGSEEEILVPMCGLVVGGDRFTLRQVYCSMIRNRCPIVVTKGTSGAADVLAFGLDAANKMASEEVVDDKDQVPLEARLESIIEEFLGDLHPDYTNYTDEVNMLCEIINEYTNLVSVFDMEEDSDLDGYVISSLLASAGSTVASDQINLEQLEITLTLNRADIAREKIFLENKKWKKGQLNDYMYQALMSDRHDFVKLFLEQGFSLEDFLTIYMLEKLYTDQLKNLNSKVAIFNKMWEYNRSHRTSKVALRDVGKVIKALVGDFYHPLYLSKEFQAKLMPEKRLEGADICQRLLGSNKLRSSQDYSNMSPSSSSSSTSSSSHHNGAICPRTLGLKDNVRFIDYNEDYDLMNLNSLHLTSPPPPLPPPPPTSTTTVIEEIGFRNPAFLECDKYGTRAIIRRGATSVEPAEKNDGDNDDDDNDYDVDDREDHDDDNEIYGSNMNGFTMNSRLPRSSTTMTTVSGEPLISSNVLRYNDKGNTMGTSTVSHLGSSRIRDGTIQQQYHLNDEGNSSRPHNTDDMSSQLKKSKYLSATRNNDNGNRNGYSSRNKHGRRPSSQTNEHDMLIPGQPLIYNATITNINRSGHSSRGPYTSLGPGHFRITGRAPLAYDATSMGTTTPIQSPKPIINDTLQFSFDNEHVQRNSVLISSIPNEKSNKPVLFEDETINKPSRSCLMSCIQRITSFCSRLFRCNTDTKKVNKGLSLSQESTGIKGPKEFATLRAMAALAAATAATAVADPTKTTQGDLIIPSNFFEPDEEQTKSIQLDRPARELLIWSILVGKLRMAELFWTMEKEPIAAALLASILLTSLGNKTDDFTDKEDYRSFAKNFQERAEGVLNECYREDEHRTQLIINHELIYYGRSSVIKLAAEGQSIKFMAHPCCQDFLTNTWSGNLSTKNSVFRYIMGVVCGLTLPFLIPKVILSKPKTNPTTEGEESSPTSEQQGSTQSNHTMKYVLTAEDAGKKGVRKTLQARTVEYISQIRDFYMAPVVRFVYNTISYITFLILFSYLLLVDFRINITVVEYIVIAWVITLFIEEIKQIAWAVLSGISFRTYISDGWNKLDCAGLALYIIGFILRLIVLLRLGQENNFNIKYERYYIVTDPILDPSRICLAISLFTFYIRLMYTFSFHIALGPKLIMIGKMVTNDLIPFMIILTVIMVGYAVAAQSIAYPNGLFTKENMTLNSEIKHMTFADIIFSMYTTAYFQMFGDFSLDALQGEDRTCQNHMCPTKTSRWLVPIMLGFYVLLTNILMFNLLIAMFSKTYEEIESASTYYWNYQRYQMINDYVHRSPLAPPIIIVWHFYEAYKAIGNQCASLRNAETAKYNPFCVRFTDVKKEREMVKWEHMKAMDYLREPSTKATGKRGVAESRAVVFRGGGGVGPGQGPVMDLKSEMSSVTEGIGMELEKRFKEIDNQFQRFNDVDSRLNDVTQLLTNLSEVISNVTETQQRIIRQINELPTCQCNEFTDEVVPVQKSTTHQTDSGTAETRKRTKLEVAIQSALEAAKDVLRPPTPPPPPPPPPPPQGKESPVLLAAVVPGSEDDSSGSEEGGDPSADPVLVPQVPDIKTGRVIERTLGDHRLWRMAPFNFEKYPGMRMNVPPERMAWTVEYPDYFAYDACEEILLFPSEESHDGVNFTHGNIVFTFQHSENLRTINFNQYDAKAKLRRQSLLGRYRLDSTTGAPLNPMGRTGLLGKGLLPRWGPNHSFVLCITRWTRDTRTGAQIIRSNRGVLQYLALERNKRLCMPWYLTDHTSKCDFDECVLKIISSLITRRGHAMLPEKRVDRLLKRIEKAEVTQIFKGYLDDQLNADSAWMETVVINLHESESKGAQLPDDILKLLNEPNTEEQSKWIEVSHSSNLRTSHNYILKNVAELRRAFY

adult schistosome worms = test: Schistosome mobility assay ex vivo; assay type: cell-based, S. mansoni
Protocol: Adult schistosomes were harvested from the mesenteric vasculature of female Swiss Webster mice previously infected (~49 days earlier) with S. mansoni cercariae (NMRI strain) by the Schistosomiasis Resource Center at the Biomedical Research Institute (BRI, Rockville, MD). Harvested schistosomes were washed in RPMI 1640 supplemented with 5% heat inactivated FBS (Gibco), HEPES (25 mM) and penicillin-streptomycin (100 units/mL). After isolation, worms were incubated overnight (37°C/5% CO2) in vented petri dishes (100x25 mm). Movement assays were performed using male and female worms in six well dishes (~5 individual worms/3ml media per well). Video recordings of worm motility (4 frames/sec) were captured using a Zeiss Discovery v20 stereomicroscope coupled to a QiCAM 12-bit cooled color CCD camera controlled by Metamorph imaging software.

schistosomes = tested on: schistosomes; parameters: method as in PMID 27128493; details: read-out: IC50 in phenotypic assays; cited from earlier work
[3] = S2 Table, listed as SR-01000003100-3
[4] = S2 Table, listed as SR-01000003100-19

Structure (SMILES)	EC50 ([1]; S2 Table) [µM]	HEK AG Averaged Max % Response [1, 3] [%]	HEK AG Averaged Max % Response [1, 4] [%]	change in basal fluorescence ([1]; ≤30 μM, untransfected HEK293 cells)	EC50 ([2]; S2 Table) [µM]	HEK ANT Averaged Max % Response [2, 3] [%]	HEK ANT Averaged Max % Response [2, 4] [%]	Ca2+ elevation at binding site mutant (Sm.TRPMPZQ[R1514A])	ΔF/F, amplitude of Ca2+ transient (Sm.TRPMPZQ)	EC50 ([1]; S3 Table) [µM]	HEK AG Averaged Max % Response ([1]; S3 Table) [%]	EC50 ([2]; S3 Table) [µM]	HEK ANT Averaged Max % Response ([2]; S3 Table) [%]	recovery of worms in continued presence of PZQ (adult schistosome worms; 50μM, PZQ 250 nM, 24 hours, compared to PZQ alone)	effect on worm motility (adult schistosome worms; applied alone to intact worms)	HEK AG Averaged Max % Response ([1]; S2 Table) [%]	activity on counter-screening in naïve HEK cells ([1]; concentration-response)	HEK ANT Averaged Max % Response ([2]; S2 Table) [%]	effect on adult worms ex vivo (adult schistosome worms; agonist alone)	IC50 (schistosomes) [µM]
O=C(C1CCCCC1)N1CC(=O)N2CCc3ccccc3C2C1 (centres unmarked) [PZQ, praziquantel, reference compound]	> 12.4	2.271	17.5496	failed to elicit any change in basal fluorescence	> 12.4	20.9575	9.578	did not elevate Ca^2+	12.3±2.1	–	–	–	–	–	–	–	–	–	–	–
Cc1onc(-c2ccccc2)c1C(=O)N1CCN(C2c3ccccc3-c3ccccc32)CC1 [ANT1, 1-(9H-fluoren-9-yl)-4-(5-methyl-3-phenyl-1,2-oxazole-4-carbonyl)piperazine]	–	–	–	–	–	–	–	–	–	> 12.4	25.3604	> 12.4	43.1011	enhanced recovery	did not change worm motility	–	–	–	–	–
COc1ccc(-c2nnc3ccc(-c4cccc(C(C)C)c4)cn23)cc1OC [AG1, 3-(3,4-Dimethoxyphenyl)-6-(3-propan-2-ylphenyl)-[1,2,4]triazolo[4,3-a]pyridine]	> 12.4	–	–	–	10.3	–	–	ablated AG1 activity	–	–	–	–	–	–	–	8.295	no activity	64.2957	evoked a sustained contraction	~1.6
